Tests used:
TLR8 = molecular target: T1, TLR8 (Homo sapiens, UniProt Q9NR97); test: In vitro human TLR8 binding reporter assay (HEK-Blue, NF-kB/AP1-inducible SEAP); type: cell-based; settings: activity range symbols
T1 construct: host or cells: HEK-Blue cells (human HEK) co-expressing TLR8 and an NF-kB/AP1-inducible SEAP reporter
T1 sequence (Q9NR97 27-1041): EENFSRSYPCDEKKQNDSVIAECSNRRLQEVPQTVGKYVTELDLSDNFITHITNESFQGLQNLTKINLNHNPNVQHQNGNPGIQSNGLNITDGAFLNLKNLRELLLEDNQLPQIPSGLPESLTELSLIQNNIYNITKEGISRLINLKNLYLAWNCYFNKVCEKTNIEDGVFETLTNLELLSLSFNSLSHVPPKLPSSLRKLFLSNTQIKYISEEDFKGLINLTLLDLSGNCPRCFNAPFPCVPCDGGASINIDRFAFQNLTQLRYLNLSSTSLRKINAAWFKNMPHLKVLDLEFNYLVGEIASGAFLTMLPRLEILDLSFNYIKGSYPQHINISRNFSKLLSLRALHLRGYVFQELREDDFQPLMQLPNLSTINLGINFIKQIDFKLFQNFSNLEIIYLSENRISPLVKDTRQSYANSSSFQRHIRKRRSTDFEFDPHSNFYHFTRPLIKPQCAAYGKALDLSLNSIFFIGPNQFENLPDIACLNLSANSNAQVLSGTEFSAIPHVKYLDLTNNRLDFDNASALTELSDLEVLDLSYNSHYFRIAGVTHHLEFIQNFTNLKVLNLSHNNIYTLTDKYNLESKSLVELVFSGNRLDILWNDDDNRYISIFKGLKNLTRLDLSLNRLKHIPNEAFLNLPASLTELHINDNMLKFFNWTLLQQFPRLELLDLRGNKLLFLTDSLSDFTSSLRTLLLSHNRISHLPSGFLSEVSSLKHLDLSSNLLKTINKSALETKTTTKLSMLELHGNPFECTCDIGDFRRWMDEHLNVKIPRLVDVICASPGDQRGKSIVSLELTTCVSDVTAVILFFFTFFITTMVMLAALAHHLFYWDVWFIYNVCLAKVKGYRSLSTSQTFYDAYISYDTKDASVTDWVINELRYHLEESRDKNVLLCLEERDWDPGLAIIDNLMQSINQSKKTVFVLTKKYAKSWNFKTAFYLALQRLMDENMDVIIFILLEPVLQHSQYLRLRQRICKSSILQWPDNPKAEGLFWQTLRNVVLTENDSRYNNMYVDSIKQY
In short: (§1)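 Reporter cells are plated at 15,000 per well and rested 24 h. Next day, test compounds or DMSO are dispensed, followed by 18 h incubation at 37 °C, 5% CO2.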

TLR7 = molecular target: T2, TLR7 (Homo sapiens, UniProt Q9NYK1); test: In vitro human TLR7 binding reporter assay (HEK-Blue, NF-kB/AP1-inducible SEAP); type: cell-based; settings: activity range symbols
T2 construct: host or cells: HEK-Blue cells (human HEK) co-expressing TLR7 and an NF-kB/AP1-inducible SEAP reporter
T2 sequence (Q9NYK1 27-1049): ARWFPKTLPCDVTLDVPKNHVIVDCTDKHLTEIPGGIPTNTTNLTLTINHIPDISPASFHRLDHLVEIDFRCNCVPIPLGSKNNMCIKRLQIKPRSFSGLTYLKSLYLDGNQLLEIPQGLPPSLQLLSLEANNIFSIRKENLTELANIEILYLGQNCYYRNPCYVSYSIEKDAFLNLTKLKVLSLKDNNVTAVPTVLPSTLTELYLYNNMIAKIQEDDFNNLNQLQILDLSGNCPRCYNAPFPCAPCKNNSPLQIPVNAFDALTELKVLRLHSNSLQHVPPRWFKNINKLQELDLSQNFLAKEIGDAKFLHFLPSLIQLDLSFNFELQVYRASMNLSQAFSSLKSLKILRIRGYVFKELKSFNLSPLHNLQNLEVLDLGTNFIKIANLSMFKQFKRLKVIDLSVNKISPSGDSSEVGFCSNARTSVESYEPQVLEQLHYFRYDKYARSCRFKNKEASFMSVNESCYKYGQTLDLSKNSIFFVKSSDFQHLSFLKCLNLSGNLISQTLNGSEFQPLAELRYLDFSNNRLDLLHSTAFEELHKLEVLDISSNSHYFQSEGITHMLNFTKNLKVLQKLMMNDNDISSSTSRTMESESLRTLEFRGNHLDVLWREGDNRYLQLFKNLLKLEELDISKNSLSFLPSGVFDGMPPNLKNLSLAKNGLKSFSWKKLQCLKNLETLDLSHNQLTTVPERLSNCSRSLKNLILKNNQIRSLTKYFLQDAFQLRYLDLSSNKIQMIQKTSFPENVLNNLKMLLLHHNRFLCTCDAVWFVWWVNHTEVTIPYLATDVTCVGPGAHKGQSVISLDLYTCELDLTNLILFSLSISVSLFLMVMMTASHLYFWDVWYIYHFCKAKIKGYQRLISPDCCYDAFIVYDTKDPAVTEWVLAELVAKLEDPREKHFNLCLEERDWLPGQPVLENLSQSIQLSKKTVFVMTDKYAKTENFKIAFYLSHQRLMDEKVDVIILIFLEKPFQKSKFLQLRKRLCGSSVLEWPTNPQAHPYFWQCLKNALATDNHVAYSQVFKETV
In short: as §1

Compound	EC50 (TLR8) [µM]	EC50 (TLR7) [µM]
CCC(=O)NCc1nc2c(N)nc3cc(-c4cc[nH]n4)ccc3c2[nH]1 [Compound 111]	> 100	> 100
CCN(Cc1nc2c(N)nc3cc(-c4cc[nH]n4)ccc3c2[nH]1)C(=O)c1nccs1 [Compound 114]	> 100	> 100
CN(Cc1nc2c(N)nc3cc(-c4cc[nH]n4)ccc3c2[nH]1)S(C)(=O)=O [Compound 115]	> 100	> 100
CC(c1nc2c(N)nc3cc(-n4cccn4)ccc3c2[nH]1)N1CCCC1=O (stereo not drawn) [Compound 117]	> 100	20 to 100
CCN(Cc1nc2c(N)nc3cc(-c4cc[nH]n4)ccc3c2[nH]1)C(=O)C1CC1 [Compound 118]	> 100	> 100
Nc1nc2cc(-c3cccs3)ccc2c2[nH]c(CN3CCCC3=O)nc12 [Compound 309, 1-[(4-amino-7-thiophen-2-yl-1H-imidazo[4,5-c]quinolin-2-yl)methyl]pyrrolidin-2-one]	> 100	> 100
N#Cc1ccccc1-c1ccc2c(c1)nc(N)c1nc(CN3CCCC3=O)[nH]c12 [Compound 315, 2-[4-amino-2-[(2-oxopyrrolidin-l-yl)methyl]-1H-imidazo[4,5-c]quinolin-7-yl]benzonitrile]	> 100	> 100
Nc1nc2cc(Br)ccc2c2[nH]c(CN3CC(c4ccccc4)CC3=O)nc12 (stereo not drawn) [Compound 316, 1-[(4-amino-7-bromo-1H-imidazo[4,5-c]quinolin-2-yl)methyl]-4-phenylpyrrolidin-2-one]	> 100	> 100
COc1ncccc1-c1ccc2c(c1)nc(N)c1nc(CN3CCCC3=O)[nH]c12 [Compound 319, 1-[[4-amino-7-(2-methoxypyridin-3-yl)-1H-imidazo[4,5-c]quinolin-2-yl]methyl]pyrrolidin-2-one]	> 100	> 100
Nc1nc2cc(-c3cccnc3Cl)ccc2c2[nH]c(CN3CCCC3=O)nc12 [Compound 320, 1-[[4-amino-7-(2-chloropyridin-3-yl)-1H-imidazo[4,5-c]quinolin-2-yl]methyl]pyrrolidin-2-one]	> 100	> 100
Nc1nc2cc(-c3cnccc3Cl)ccc2c2[nH]c(CN3CCCC3=O)nc12 [Compound 321, 1-[[4-amino-7-(4-chloropyridin-3-yl)-1H-imidazo[4,5-c]quinolin-2-yl]methyl]pyrrolidin-2-one]	> 100	20 to 100
Nc1nc2cc(-c3ccc(C(F)(F)F)nc3)ccc2c2[nH]c(CN3CCCC3=O)nc12 [Compound 324, 1-[[4-amino-746-(trifluoromethyppyridin-3-yl]-1H-imidazo[4,5-c]quinolin-2-yl]methyl]pyrrolidin-2-one]	> 100	> 100
N#Cc1cncc(-c2ccc3c(c2)nc(N)c2nc(CN4CCCC4=O)[nH]c23)c1 [Compound 326, 5-[4-amino-2-[(2-oxopyrrolidin-l-yl)methyl]-1H-imidazo[4,5-c]quinolin-7-yl]pyridine-3-carbonitrile]	> 100	> 100
N#Cc1ccc(-c2ccc3c(c2)nc(N)c2nc(CN4CCCC4=O)[nH]c23)cn1 [Compound 327, 5-[4-amino-2-[(2-oxopyrrolidin-l-yl)methyl]-1H-imidazo[4,5-c]quinolin-7-yl]pyridine-2-carbonitrile]	> 100	> 100
Nc1nc2cc(-c3cncc(Cl)c3)ccc2c2[nH]c(CN3CCCC3=O)nc12 [Compound 328, 1-[[4-amino-7-(5-chloropyridin-3-yl)-1H-imidazo[4,5-c]quinolin-2-yl]methyl]pyrrolidin-2-one]	> 100	> 100
Nc1nc2cc(-c3ccc(F)nc3)ccc2c2[nH]c(CN3CCCC3=O)nc12 [Compound 330, 1-[[4-amino-7-(6-fluoropyridin-3-yl)-1H-imidazo[4,5-c]quinolin-2-yl]methyl]pyrrolidin-2-one]	> 100	> 100
Nc1nc2cc(-c3cncc(F)c3)ccc2c2[nH]c(CN3CCCC3=O)nc12 [Compound 331, 1-[[4-amino-7-(5-fluoropyridin-3-yl)-1H-imidazo[4,5-c]quinolin-2-yl]methyl]pyrrolidin-2-one]	> 100	> 100

Compound	EC50 (TLR8) [µM]	EC50 (TLR7) [µM]
Nc1nc2cc(C3CCCCCC3)ccc2c2[nH]c(CN3CCCC3=O)nc12 [Compound 332, 1-[(4-amino-7-cycloheptyl-1H-imidazo[4,5-c]quinolin-2-yl)methyl]pyrrolidin-2-one]	> 100	> 100
Nc1nc2cc(-c3cccnc3)ccc2c2[nH]c(CN3CC(c4ccccc4)CC3=O)nc12 (stereo not drawn) [Compound 333, 1-[(4-amino-7-pyridin-3-yl-1H-imidazo[4,5-c]quinolin-2-yl)methyl]-4-phenylpyrrolidin-2-one]	> 100	> 100
COC(=O)CCCn1c(CN2CCCC2=O)nc2c(N)nc3ccccc3c21 [Compound 335]	> 100	> 100
CN(C)C(=O)CCCn1c(CN2CCCC2=O)nc2c(N)nc3cc(Cl)ccc3c21 [Compound 337]	> 100	> 100
CN(C)C(=O)CCCn1c(CN2CCCC2=O)nc2c(N)nc3cc(-c4cccnc4)ccc3c21 [Compound 340]	> 100	> 100
COC(=O)CCCn1c(CN2CCCC2=O)nc2c(N)nc3cc(Br)ccc3c21 [Compound 341]	> 100	> 100
COC(=O)CCCn1c(CN2CCCC2=O)nc2c(N)nc3cc(-c4cccnc4)ccc3c21 [Compound 342]	> 100	> 100
Nc1nc2ccccc2c2[nH]c(CN3CCCCC3=O)nc12 [Compound 346]	> 100	> 100
COC(=O)CCCn1c(CN2CCCCC2=O)nc2c(N)nc3ccccc3c21 [Compound 347]	> 100	> 100
CN(C)Cc1nc2c(N)nc3cc(-c4cc[nH]n4)ccc3c2[nH]1 [Compound 348]	> 100	> 100
CCN(C)Cc1nc2c(N)nc3cc(-c4cc[nH]n4)ccc3c2[nH]1 [Compound 349]	> 100	> 100
Nc1nc2cc(-n3cccn3)ccc2c2[nH]c(CN3C[C@@H](c4ccccc4)CC3=O)nc12 [Compound 357]	> 100	> 100
Nc1nc2cc(-n3cccn3)ccc2c2[nH]c(CN3C[C@H](c4ccccc4)CC3=O)nc12 [Compound 358]	> 100	> 100
Nc1nc2cc(-c3cc[nH]n3)ccc2c2[nH]c(CN3C(=O)OCC3c3ccccc3)nc12 (stereo not drawn) [Compound 363]	> 100	> 100
Nc1nc2cc(-c3cc[nH]n3)ccc2c2[nH]c(CN3CCOC3=O)nc12 [Compound 365]	> 100	> 100
CN1CCN(Cc2nc3c(N)nc4cc(-c5cc[nH]n5)ccc4c3[nH]2)C1=O [Compound 368]	> 100	> 100
